“Also recorded” adds a separate entry of the source.
Legend:
[1] = system: swine exposed to 2.5 ATA hyperbaric oxygen for 5.5 hr; assay: Experiment 2: heart rate variability (SDNN); format: in vivo; details: 2.5 ATA O2 5.5 hr; mean+/−SEM; p=0.0331 vs saline
Description: The swine were prepared for ECG recording as described previously. Briefly, using an electric shaver, ECG areas were prepared bilaterally, posterior to the shoulder, lateral to the vertebrae, at approximately 4-7 cm above ribs 5-7 (bipolar derivation). Another area was prepared 2 cm lateral to the vertebrae on right side, between ribs 12-13. Newly exposed skin was rubbed with isopropyl alcohol. Disposable pre-wired (Grass Technologies/Astro-Med, Inc. Warwick, Mass.) or SF405 (KENDALL MEDI-TRACE™, Tyco Healthcare, Mansfield, Mass.) self-adhesive Ag/AgCl electrodes were placed on the proximal, symmetric sites and the ground electrode was placed at the distal site (between ribs 12-13). […]
Wideband AC amplifiers (Grass, Quincy, Mass.) were used for EEG and ECG recordings; a 0.5-35 Hz and 60 cycle notch filter setting was used. […] Heart rate variability (HRV) was calculated from pre-dive ECG epochs of at least 2 min durations using the Labchart ECG tool suite. […] Above the manually set trigger level the LabChart software looked for maximum values and measured the time interval between peaks (maximal amplitude of R-wave). […] The length of measured periods were: (1) 114.995 sec; peak-to-peak distance 0.750 t 0.0004 sec; 153 peaks; FFT 1.329 Hz=79.74 bpm; and (2) 326.52 sec; peak-to-peak distance 0.750±0.0003; 434 peaks; FFT 1.332 Hz=79.92 bpm. […]

[2] = system: swine exposed to 2.5 ATA hyperbaric oxygen for 5.5 hr; assay: Experiment 2 deep exposure simulation: pulmonary compliance; format: in vivo
Description: Experiment 2 is designed to evaluate the efficacy of tiotropium bromide pre-dive with respect to reducing decrements in pulmonary function due to PO2T following a 5.5 hour, 2.5 ATA hyperbaric oxygen exposure. This dive profile was selected because it caused the most significant pulmonary function deficits in humans with minimal risk of seizure due to CNS oxygen toxicity.
Pulmonary function testing: The swine had disposable prewired electrodes adhered to the dermis over the gluteal muscle and a train of four (TOF) stimulation was initiated to confirm proper placement and twitch using a DigiStim III Peripheral Nerve Stimulator (Neuro Technology Inc., Kerrville, Tex.). Atracurium besylate (50 mg, IV) (hospira, Lake Forest, Ill.) was injected into the ear vein catheter, and the swine was observed until cessation of muscle twitch with TOFs. The swine was then disconnected from the ventilator circuit, allowed to passively exhale, and connected to an O2 filled 3 L super syringe (Hamilton Company, Reno, Nev.) attached to a pressure gauge (OMEGA®, Norwalk, Conn.), and pneumotachometer (Harvard Apparatus, Holliston, Mass.). Oxygen was introduced in 100 ml increments every 3 seconds until a static pressure of 40 cm H2O was reached. The lungs were then deflated in 100 ml increments until a static pressure of −40 cm H2O. The swine was then reconnected to the ventilator and ventilated for 2 minutes before repeating the insufflation and exhalation maneuvers and measurements one more time. […] After the above measurements, swine received either nebulized Tiotropium (18 μg dissolved in saline) or an equal volume of 0.9% saline through the breathing circuit over the course of 15 minutes. The propofol infusion was then stopped, the animals were then monitored until a swallow reflex was observed then extubated. The swine were then transported to the hyperbaric chamber suite and allowed to recover until capable of standing.
Hyperbaric Exposures: Individual animals were then placed into a Plexiglas box (30 in.×42 in.×38 in., manufactured in-house) within a Multiple Large Animal Chamber (MLAC), which is a steel-hulled hyperbaric chamber (450-cubic ft. floodable volume and pressure tested to 1,230 feet of seawater [fsw] equivalent) (Bethlehem Steel Corp, Bethlehem Pa.). Pressure/depth was monitored by a CPG 2500 Digital Pressure Gauge (Mensor Corp., San Marcos, Tex.). Swine were dove in pairs with each treatment group represented. Swine box assignment was alternated with respect to treatment to avoid any effects associated with individual box environmental features. Animals were monitored via closed-circuit television to observe signs of distress related to middle ear barotrauma (e.g. head shaking, nystagmus) and seizure activity. Oxygen concentration was measured and recorded using a portable O2 analyzer (Teledyne Analytical Inst, City of Industry, Calif.). After positioning the animal inside the Plexiglas box, the MLAC was sealed and pressurized using air at the rate of I ATA/minute to a depth of 2.5 ATA. After 2.5 min at a bottom depth equivalent to 2.5 ATA, the breathing gas was switched to 100% O2 and maintained for 5.5 Hrs. After completing 5.5 Hrs on 100% O2, the inspired gas was switched back to air for 3 min. Then, the chamber was decompressed at 1 ATA/minute. Upon reaching surface the animal was transported to the surgical suite for post-dive ECG and pulmonary function measurements (identical to the pre-dive procedures). […]

C[N+]1(C)[C@@H]2C[C@@H](OC(=O)C(O)(c3cccs3)c3cccs3)C[C@H]1[C@@H]1O[C@@H]12 [Tiotropium, tiotropium bromide]
Post-dive SDNN normalized to the pre-dive SDNN [1]: 103.5+/−15.87 | pulmonary compliance, inspiratory arm, post-exposure vs baseline ([2]; 2.5 ATA O2 5.5 hr, 1st set of measurements, n=7, p=0.1999): no significant difference | expiratory compliance, post-exposure vs baseline ([2]; 2.5 ATA O2 5.5 hr, 1st set of measurements, n=7, p=0.5711): did not exhibit any decrement | pulmonary compliance, expiratory arm, post-exposure vs baseline ([2]; 2.5 ATA O2 5.5 hr, 2nd set of measurements, n=9, p=0.0438): significant decrement | pulmonary compliance, inspiratory arm, post-exposure vs baseline ([2]; 2.5 ATA O2 5.5 hr, 2nd set of measurements, n=9, p=0.7388): no significant change | pulmonary compliance after hyperbaric oxygen exposure ([2]; 2.5 ATA for 5.5 hrs, 18 μg inhaled, nebulized, prophylactic, p=0.9094): no decrement in pulmonary compliance; also recorded: no change

Source: US20190290623A1, “USE OF TIOTROPIUM BROMIDE TO PREVENT PULMONARY OXYGEN TOXICITY” (priority 2018, published 2019)
